# Measured values published in patent US12071453B2, “Neuroactive steroids, compositions, and uses thereof” (Sage Therapeutics, Inc., priority 2013, dated 2024).
# How the values were obtained:
# [1] = biological target: T1, recombinant α1β2γ2 GABAA receptors (Homo sapiens, UniProt P14867+P47870); test: Patch clamp electrophysiology (QPatch) in LTK cells stably transfected with α1β2γ2; format: cell-based; conditions: 10 μM compound, 2 μM GABA (EC20), read-out: GABA (α1β2γ2) Qpatch in Ltk, % efficacy at 10 μM
# T1 construct: expressed in transfected cells; host or cells: LTK cells, stably transfected
# [2] = biological target: [35S]-TBPS binding in rat brain cortical membranes; test: Steroid inhibition of [35S]-TBPS binding, rat brain cortical membranes; conditions: 3 nM [35S]-TBPS, in the presence of 5 μM GABA, read-out: 35S-TBPS Radioligand Displacement (IC50)
# Method in brief: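 Washed P2 cortical membranes from Sprague-Dawley rats were incubated 90 min at room temperature with 3 nM [35S]-TBPS, 5 μM GABA and test steroid (0.5% DMSO) in 200 mM NaCl/50 mM Na–K phosphate, pH 7.4. Nonspecific binding was defined with 2 μM unlabeled TBPS, and samples were filtered and counted. IC50 and Imax came from non-linear fits, reported as mean ± SEM.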
# [3] = biological target: T2, recombinant α4β3δ GABAA receptors (Homo sapiens, UniProt P28472+P48169); test: Manual patch clamp electrophysiology in CHO cells transiently transfected with α4β3δ; format: cell-based; conditions: 10 μM compound, 2 μM GABA (EC20), read-out: GABA (α4β3δ) Manual patch in CHO, % efficacy at 10 μM
# T2 construct: expressed in transfected cells; host or cells: CHO cells, transiently transfected (Lipofectamine)
# [4] = biological target: T3, GABAA receptors composed of the α4β3δ subunits (GABRA4/GABRB3/GABRD) (Homo sapiens, UniProt P28472+P48169); test: Two Electrode Voltage Clamp (TEVC), GABA receptor potentiation in Xenopus laevis oocytes, α4β3δ; format: cell-based; conditions: 10 μM compound, 3 μM GABA, read-out: GABA (α4β3δ) % efficacy at 10 μM
# T3 construct: expressed in transfected cells; host or cells: Xenopus laevis oocytes, injected (ratio 5:1:5)
# Procedure: (§1) The Two Electrode Voltage Clamp (TEVC) technique was used to investigate the effects of compounds at a concentration of 10 μM on GABAA receptors composed of the α1β2γ2 or α4β3δ subunits expressed in oocytes from the Xenopus laevis. GABA-evoked currents were recorded from oocytes that expressed the GABA receptors and the modulatory effects of the test items on these currents were investigated.
# (§2) Ovaries were harvested from Xenopus laevis females that had been deeply anesthetized by cooling at 4° C. and immersion in Tricaine methanesulfonate (MS-222 at a concentration of 150 mg/L) in sodium bicarbonate (300 mg/L). Once anesthetized the animal was decapitated and pithed following the rules of animal rights from the Geneva canton. A small piece of ovary was isolated for immediate preparation while the remaining part was placed at 4° C. in a sterile Barth solution containing in mM NaCl 88, KCl 1, NaHCO3 2.4, HEPES 10, MgSO4·7H2O 0.82, Ca(NO3)2·4H2O 0.33, CaCl2·6H2O 0.41, at pH 7.4, and supplemented with 20 μg/ml of kanamycin, 100 unit/ml penicillin and 100 μg/ml streptomycin. All recordings were performed at 18° C. and cells were super-fused with medium containing in mM: NaCl 82.5, KCl 2.5, HEPES 5, CaCl2·2H2O, ·6H2O 1, pH 7.4.
# (§3) Plasmids containing the RNAs of the human GABRA1/GABRB2/GABRG2 and GABRA4/GABRB3/GABRD genes were injected into oocytes using a proprietary automated injection device (Hogg el al., J. Neurosci. Methods, (2008) 169: 65-75). These genes encode for the α1β2γ2 and α4β3δ GABAA subunits respectively. Receptor expression was assessed using electrophysiology at least two days later. The ratio of RNA injection for α1β2γ2 was 1:1:1 and for α4β3δ was 5:1:5. Electrophysiological recordings were made using an automated process equipped with standard TEVC and data were captured and analyzed using a proprietary data acquisition and analysis software running under Matlab (Mathworks Inc.). The membrane potential of the oocytes was maintained at −80 mV throughout the experiments. To explore the effects of proprietary compounds, currents were evoked by applying 10 μM (α1β2γ2) or 3 μM (α4β3δ) GABA for 30 s. These concentrations approximated the EC50 concentration of GABA at each receptor subtype. Oocytes were then re-exposed to GABA again for 30 s. 15 s after beginning the GABA application, test article was co-applied at a concentration of 10 μM for 15 s. Potentiation of the peak current was assessed. Data was filtered at 10 Hz, captured at 100 Hz and analyzed using proprietary data acquisition and analysis software running under Matlab (Mathworks Inc.). For statistical analysis values were computed either with Excel (Microsoft) or Matlab (mathworks Inc.). To obtain mean measurements with standard deviations, all experiments were carried out using at least three cells.
# [5] = biological target: T4, GABAA receptors composed of the α1β2γ2 subunits (GABRA1/GABRB2/GABRG2) (Homo sapiens, UniProt P14867+P47870); test: Two Electrode Voltage Clamp (TEVC), GABA receptor potentiation in Xenopus laevis oocytes, α1β2γ2; format: cell-based; conditions: 10 μM compound, 10 μM GABA, read-out: GABA (α1β2γ2) % efficacy at 10 μM
# T4 construct: expressed in transfected cells; host or cells: Xenopus laevis oocytes, injected (ratio 1:1:1)
# Procedure: as §1, §2, §3
# T1 sequence (P14867 28-456): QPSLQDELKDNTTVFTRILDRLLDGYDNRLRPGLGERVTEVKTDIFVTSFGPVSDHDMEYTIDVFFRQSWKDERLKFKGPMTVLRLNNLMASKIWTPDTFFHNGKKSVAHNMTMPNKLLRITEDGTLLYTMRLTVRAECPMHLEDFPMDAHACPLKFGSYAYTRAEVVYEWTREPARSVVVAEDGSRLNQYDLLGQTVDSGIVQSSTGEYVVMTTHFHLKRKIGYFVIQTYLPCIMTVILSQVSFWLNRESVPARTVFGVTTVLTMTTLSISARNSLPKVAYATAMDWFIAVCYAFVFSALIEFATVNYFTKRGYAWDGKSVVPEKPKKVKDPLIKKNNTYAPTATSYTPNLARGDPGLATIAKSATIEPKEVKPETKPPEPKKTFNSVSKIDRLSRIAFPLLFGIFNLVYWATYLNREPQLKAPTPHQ
# T1 sequence (P47870 26-512): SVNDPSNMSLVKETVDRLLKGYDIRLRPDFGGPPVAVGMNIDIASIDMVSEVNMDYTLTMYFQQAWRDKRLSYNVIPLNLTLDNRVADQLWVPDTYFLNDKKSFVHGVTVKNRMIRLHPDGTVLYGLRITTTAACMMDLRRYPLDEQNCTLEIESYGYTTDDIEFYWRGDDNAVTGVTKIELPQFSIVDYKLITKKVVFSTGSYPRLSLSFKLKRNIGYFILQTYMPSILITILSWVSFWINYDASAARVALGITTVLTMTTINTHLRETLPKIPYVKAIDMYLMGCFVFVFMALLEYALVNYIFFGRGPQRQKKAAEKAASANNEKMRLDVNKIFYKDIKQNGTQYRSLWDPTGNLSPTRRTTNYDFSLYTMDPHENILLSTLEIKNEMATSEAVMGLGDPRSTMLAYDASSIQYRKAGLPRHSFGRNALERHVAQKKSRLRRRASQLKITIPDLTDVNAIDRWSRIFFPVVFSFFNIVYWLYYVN
# T1 sequence (P18507 40-475 partner): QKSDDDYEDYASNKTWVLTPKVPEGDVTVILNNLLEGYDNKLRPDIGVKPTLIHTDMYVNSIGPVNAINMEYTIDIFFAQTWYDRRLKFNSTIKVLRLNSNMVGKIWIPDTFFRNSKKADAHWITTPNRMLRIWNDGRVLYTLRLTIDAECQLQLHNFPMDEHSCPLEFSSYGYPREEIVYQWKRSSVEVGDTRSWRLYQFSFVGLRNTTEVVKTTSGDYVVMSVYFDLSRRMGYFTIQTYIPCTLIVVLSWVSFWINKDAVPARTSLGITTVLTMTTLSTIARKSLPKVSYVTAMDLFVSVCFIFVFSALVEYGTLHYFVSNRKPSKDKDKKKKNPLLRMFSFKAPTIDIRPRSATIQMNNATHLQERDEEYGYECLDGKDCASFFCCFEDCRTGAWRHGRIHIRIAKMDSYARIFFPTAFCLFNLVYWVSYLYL
# T4 sequence (P14867 28-456): as the sequence (P14867 28-456) above
# T4 sequence (P47870 26-512): as the sequence (P47870 26-512) above
# T4 sequence (P18507 40-475 partner): as the sequence (P18507 40-475 partner) above
# T3 sequence (P48169 36-554): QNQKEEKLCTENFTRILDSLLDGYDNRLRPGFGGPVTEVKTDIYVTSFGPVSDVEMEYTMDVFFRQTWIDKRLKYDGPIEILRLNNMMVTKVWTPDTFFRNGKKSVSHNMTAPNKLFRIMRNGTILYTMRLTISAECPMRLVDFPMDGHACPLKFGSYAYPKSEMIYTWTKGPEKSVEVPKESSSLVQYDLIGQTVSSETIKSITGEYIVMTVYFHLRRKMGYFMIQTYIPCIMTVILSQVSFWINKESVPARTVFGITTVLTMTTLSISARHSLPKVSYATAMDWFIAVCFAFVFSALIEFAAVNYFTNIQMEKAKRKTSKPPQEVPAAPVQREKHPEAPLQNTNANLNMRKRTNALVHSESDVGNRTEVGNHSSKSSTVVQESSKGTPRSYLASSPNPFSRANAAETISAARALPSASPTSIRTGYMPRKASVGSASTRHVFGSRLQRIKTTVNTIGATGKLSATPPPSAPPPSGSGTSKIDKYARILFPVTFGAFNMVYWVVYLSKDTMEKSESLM
# T3 sequence (P28472 26-473): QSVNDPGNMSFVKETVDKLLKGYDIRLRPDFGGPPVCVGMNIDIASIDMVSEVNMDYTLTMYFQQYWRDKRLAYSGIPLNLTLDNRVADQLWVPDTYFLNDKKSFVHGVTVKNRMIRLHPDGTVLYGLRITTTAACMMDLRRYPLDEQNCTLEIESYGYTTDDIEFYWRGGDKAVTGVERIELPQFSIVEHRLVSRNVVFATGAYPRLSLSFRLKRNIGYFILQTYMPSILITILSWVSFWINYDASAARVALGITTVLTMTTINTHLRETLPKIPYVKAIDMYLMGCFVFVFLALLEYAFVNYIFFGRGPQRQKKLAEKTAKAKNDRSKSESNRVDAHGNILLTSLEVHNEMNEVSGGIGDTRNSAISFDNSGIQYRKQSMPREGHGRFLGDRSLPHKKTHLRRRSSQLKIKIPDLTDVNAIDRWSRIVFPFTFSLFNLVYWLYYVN
# T3 sequence (O14764 25-452 partner): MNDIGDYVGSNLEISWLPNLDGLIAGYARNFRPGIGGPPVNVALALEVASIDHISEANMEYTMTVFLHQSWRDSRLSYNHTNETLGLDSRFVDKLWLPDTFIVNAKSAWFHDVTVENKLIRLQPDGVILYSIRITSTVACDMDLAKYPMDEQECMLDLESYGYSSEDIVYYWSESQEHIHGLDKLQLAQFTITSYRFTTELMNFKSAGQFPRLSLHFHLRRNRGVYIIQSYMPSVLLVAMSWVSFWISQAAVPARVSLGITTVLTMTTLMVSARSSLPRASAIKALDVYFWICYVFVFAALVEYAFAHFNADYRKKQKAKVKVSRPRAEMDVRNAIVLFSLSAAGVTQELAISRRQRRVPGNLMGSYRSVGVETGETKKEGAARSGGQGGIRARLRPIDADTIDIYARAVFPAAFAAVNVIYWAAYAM
# T2 sequence (P48169 36-554): as the sequence (P48169 36-554) above
# T2 sequence (P28472 26-473): as the sequence (P28472 26-473) above
# T2 sequence (O14764 25-452 partner): as the sequence (O14764 25-452 partner) above
Structure (SMILES),Emax at 10 µM [1],IC50 [2],Emax at 10 µM [3],Emax at 10 µM [4],Emax at 10 µM [5]
COC[C@]12CC[C@@](C)(O)C[C@@H]1CC[C@H]1[C@@H]3CC[C@H](C(=O)Cn4nccn4)[C@@]3(C)CC[C@@H]12 [Compound 1],100 to 500%,10 to 50 nM,> 500%,–,–
COC[C@]12CC[C@@](C)(O)C[C@@H]1CC[C@H]1[C@@H]3CC[C@H](C(=O)Cn4nnnc4C)[C@@]3(C)CC[C@@H]12 [Compound 16],> 500%,10 to 50 nM,> 500%,–,–
COC[C@]12CC[C@@](C)(O)C[C@@H]1CC[C@H]1[C@@H]3CC[C@H](C(=O)Cn4ccc(C#N)n4)[C@@]3(C)CC[C@@H]12 [Compound 19],100 to 500%,–,100 to 500%,–,–
COC[C@]12CC[C@@](C)(O)C[C@H]1CC[C@H]1[C@@H]3CC[C@H](C(=O)Cn4nnnc4C)[C@@]3(C)CC[C@@H]12 [Compound 30],100 to 500%,< 10 nM,> 500%,–,–
COC[C@]12CC[C@@](C)(O)C[C@@H]1CC[C@H]1[C@@H]3CC[C@H](C(=O)Cn4ncc5ncc(Cl)cc54)[C@@]3(C)CC[C@@H]12 [Compound 69],–,10 to 50 nM,–,1000 to 1500%,500 to 1000%
CCOC[C@]12CC[C@@](C)(O)C[C@@H]1CC[C@H]1[C@@H]3CC[C@H](C(=O)Cn4nnc5ccc(Cl)cc54)[C@@]3(C)CC[C@@H]12 [Compound 70],–,50 to 100 nM,–,1000 to 1500%,50 to 500%
CCOC[C@]12CC[C@@](C)(O)C[C@@H]1CC[C@H]1[C@@H]3CC[C@H](C(=O)Cn4nnc5cc(Cl)ccc54)[C@@]3(C)CC[C@@H]12 [Compound 71],–,10 to 50 nM,–,1000 to 1500%,50 to 500%
CCOC[C@]12CC[C@@](C)(O)C[C@@H]1CC[C@H]1[C@@H]3CC[C@H](C(=O)Cn4nc5ccc(Cl)cc5n4)[C@@]3(C)CC[C@@H]12 [Compound 72],–,10 to 50 nM,–,1000 to 1500%,50 to 500%
COC[C@]12CC[C@@](C)(O)C[C@H]1CC[C@H]1[C@@H]3CC[C@H](C(=O)Cn4nc5ccc(F)c(F)c5n4)[C@@]3(C)CC[C@@H]12 [Compound 79],–,< 10 nM,–,1000 to 1500%,500 to 1000%
COC[C@]12CC[C@@](C)(O)C[C@@H]1CC[C@H]1[C@@H]3CC[C@H](C(=O)Cn4nnc5cc(F)c(F)cc54)[C@@]3(C)CC[C@@H]12 [Compound 98],–,50 to 100 nM,–,1000 to 1500%,500 to 1000%
COC[C@]12CC[C@@](C)(O)C[C@@H]1CC[C@H]1[C@@H]3CC[C@H](C(=O)Cn4ncc5nccnc54)[C@@]3(C)CC[C@@H]12 [Compound 102],–,100 to 500 nM,–,50 to 500%,50 to 500%
COC[C@]12CC[C@@](C)(O)C[C@@H]1CC[C@H]1[C@@H]3CC[C@H](C(=O)Cn4nc5ccc(OC(F)(F)F)cc5n4)[C@@]3(C)CC[C@@H]12 [Compound 104],–,50 to 100 nM,–,1000 to 1500%,50 to 500%
COC[C@]12CC[C@@](C)(O)C[C@@H]1CC[C@H]1[C@@H]3CC[C@H](C(=O)Cn4ncc5cc(Cl)ccc54)[C@@]3(C)CC[C@@H]12 [Compound 105],–,> 500 nM,–,1000 to 1500%,50 to 500%
COC[C@]12CC[C@@](C)(O)C[C@@H]1CC[C@H]1[C@@H]3CC[C@H](C(=O)Cn4cc5cc(Cl)ccc5n4)[C@@]3(C)CC[C@@H]12 [Compound 106],–,100 to 500 nM,–,1000 to 1500%,50 to 500%
COC[C@]12CC[C@@](C)(O)C[C@@H]1CC[C@H]1[C@@H]3CC[C@H](C(=O)Cn4nc5ccc(Cl)c(F)c5n4)[C@@]3(C)CC[C@@H]12 [Compound 109],–,50 to 100 nM,–,1000 to 1500%,50 to 500%
COC[C@]12CC[C@@](C)(O)C[C@@H]1CC[C@H]1[C@@H]3CC[C@H](C(=O)Cn4cc5ccc(Cl)cc5n4)[C@@]3(C)CC[C@@H]12 [Compound 113],–,100 to 500 nM,–,500 to 1000%,50 to 500%
